Values quoted from earlier work, collected in patent US9150734B2, “Zwitterionic lignin derivatives for marine antifouling coatings” (Empire Technology Development LLC, priority 2012, dated 2015).

Tested on: diatom species
Settings: variety of diatom species, various concentrations; variation between species

For benzalkonium chloride, the “concentration at which all diatoms were killed” value is given as “less than 0.001%”.
